# Test system: Echinochloa crusgalli
# Assay: Weeding effect in post-emergence stage
# Type: in vivo
# Settings: Dose 15 g/ha; fresh weight control rate level
# Method in brief: (§1)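 Weeds were treated post-emergence at 2-3 leaves with compound doses from 7.5 up to 500 g/ha, formulated in acetone–Tween 80 with methyl oleate synergist. Efficacy was assessed as growth control after 3 weeks.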
row,SMILES,"Weeding effect in post-emergence stage, Echinochloa crusgalli (level)"
1,CC(O/N=C/c1cc(-n2c(=O)cc(C(F)(F)F)n(C)c2=O)c(F)cc1Cl)C(=O)OCC1(C#N)CC1 (stereo not drawn) [Compound 447],5 (Level 5: growth control rate is above 85%)
2,CC(O/N=C/c1cc(-n2c(=O)cc(C(F)(F)F)n(C)c2=O)c(F)cc1Cl)C(=O)OCCN(C)C (stereo not drawn) [Compound 448],5 (Level 5: growth control rate is above 85%)
3,CC(=NOC(=O)C(C)ON=Cc1cc(-n2c(=O)cc(C(F)(F)F)n(C)c2=O)c(F)cc1Cl)C(C)(C)C (stereo not drawn) [Compound 449],5 (Level 5: growth control rate is above 85%)
4,CC(=NOC(=O)C(C)ON=Cc1cc(-n2c(=O)cc(C(F)(F)F)n(C)c2=O)c(F)cc1Cl)C1CC1 (stereo not drawn) [Compound 450],5 (Level 5: growth control rate is above 85%)

# Same assay, conditions: Dose 30 g/ha; fresh weight control rate level
row,SMILES,"Weeding effect in post-emergence stage, Echinochloa crusgalli (level)"
1,CC(O/N=C/c1cc(-n2c(=O)n(C)c(=S)n(C)c2=O)c(F)cc1Cl)C(=O)O (stereo not drawn) [Compound 438],5 (Level 5: growth control rate is above 85%)
2,CC(O/N=C/c1cc(-n2c(=O)n(C)c(=S)n(C)c2=O)c(F)cc1Cl)C(=O)OCC(F)(F)F (stereo not drawn) [Compound 439],5 (Level 5: growth control rate is above 85%)
3,CC(=NC(=O)C(C)ON=Cc1cc(-n2c(=O)cc(C(F)(F)F)n(C)c2=O)c(F)cc1Cl)c1ccccc1 (stereo not drawn) [Compound 453],5 (Level 5: growth control rate is above 85%)

# Same assay, conditions: Dose 60 g/ha; fresh weight control rate level
row,SMILES,"Weeding effect in post-emergence stage, Echinochloa crusgalli (level)"
1,CC(O/N=C/c1cc(-n2c(=O)cc(C(F)(F)F)n(C)c2=O)c(F)cc1Cl)C(=O)N1CCOCC1 (stereo not drawn) [Compound 454],5 (Level 5: growth control rate is above 85%)

# Test system: Digitaria sanguinalis
# Assay: Weeding effect in post-emergence stage
# Type: in vivo
# Settings: Dose 15 g/ha; fresh weight control rate level
# Method in brief: as §1
row,SMILES,"Weeding effect in post-emergence stage, Digitaria sanguinalis (level)"
1,CC(O/N=C/c1cc(-n2c(=O)cc(C(F)(F)F)n(C)c2=O)c(F)cc1Cl)C(=O)OCC1(C#N)CC1 (stereo not drawn) [Compound 447],5 (Level 5: growth control rate is above 85%)
2,CC(O/N=C/c1cc(-n2c(=O)cc(C(F)(F)F)n(C)c2=O)c(F)cc1Cl)C(=O)OCCN(C)C (stereo not drawn) [Compound 448],5 (Level 5: growth control rate is above 85%)
3,CC(=NOC(=O)C(C)ON=Cc1cc(-n2c(=O)cc(C(F)(F)F)n(C)c2=O)c(F)cc1Cl)C(C)(C)C (stereo not drawn) [Compound 449],5 (Level 5: growth control rate is above 85%)
4,CC(=NOC(=O)C(C)ON=Cc1cc(-n2c(=O)cc(C(F)(F)F)n(C)c2=O)c(F)cc1Cl)C1CC1 (stereo not drawn) [Compound 450],5 (Level 5: growth control rate is above 85%)

# Same assay, conditions: Dose 30 g/ha; fresh weight control rate level
row,SMILES,"Weeding effect in post-emergence stage, Digitaria sanguinalis (level)"
1,CC(O/N=C/c1cc(-n2c(=O)n(C)c(=S)n(C)c2=O)c(F)cc1Cl)C(=O)O (stereo not drawn) [Compound 438],5 (Level 5: growth control rate is above 85%)
2,CC(O/N=C/c1cc(-n2c(=O)n(C)c(=S)n(C)c2=O)c(F)cc1Cl)C(=O)OCC(F)(F)F (stereo not drawn) [Compound 439],5 (Level 5: growth control rate is above 85%)
3,CC(=NC(=O)C(C)ON=Cc1cc(-n2c(=O)cc(C(F)(F)F)n(C)c2=O)c(F)cc1Cl)c1ccccc1 (stereo not drawn) [Compound 453],5 (Level 5: growth control rate is above 85%)

# Same assay, conditions: Dose 60 g/ha; fresh weight control rate level
row,SMILES,"Weeding effect in post-emergence stage, Digitaria sanguinalis (level)"
1,CC(O/N=C/c1cc(-n2c(=O)cc(C(F)(F)F)n(C)c2=O)c(F)cc1Cl)C(=O)N1CCOCC1 (stereo not drawn) [Compound 454],5 (Level 5: growth control rate is above 85%)

# Test system: Setaria viridis
# Assay: Weeding effect in post-emergence stage
# Type: in vivo
# Settings: Dose 15 g/ha; fresh weight control rate level
# Method in brief: as §1
row,SMILES,"Weeding effect in post-emergence stage, Setaria viridis (level)"
1,CC(O/N=C/c1cc(-n2c(=O)cc(C(F)(F)F)n(C)c2=O)c(F)cc1Cl)C(=O)OCC1(C#N)CC1 (stereo not drawn) [Compound 447],5 (Level 5: growth control rate is above 85%)
2,CC(O/N=C/c1cc(-n2c(=O)cc(C(F)(F)F)n(C)c2=O)c(F)cc1Cl)C(=O)OCCN(C)C (stereo not drawn) [Compound 448],5 (Level 5: growth control rate is above 85%)
3,CC(=NOC(=O)C(C)ON=Cc1cc(-n2c(=O)cc(C(F)(F)F)n(C)c2=O)c(F)cc1Cl)C(C)(C)C (stereo not drawn) [Compound 449],5 (Level 5: growth control rate is above 85%)
4,CC(=NOC(=O)C(C)ON=Cc1cc(-n2c(=O)cc(C(F)(F)F)n(C)c2=O)c(F)cc1Cl)C1CC1 (stereo not drawn) [Compound 450],5 (Level 5: growth control rate is above 85%)

# Same assay, conditions: Dose 30 g/ha; fresh weight control rate level
row,SMILES,"Weeding effect in post-emergence stage, Setaria viridis (level)"
1,CC(O/N=C/c1cc(-n2c(=O)n(C)c(=S)n(C)c2=O)c(F)cc1Cl)C(=O)O (stereo not drawn) [Compound 438],5 (Level 5: growth control rate is above 85%)
2,CC(O/N=C/c1cc(-n2c(=O)n(C)c(=S)n(C)c2=O)c(F)cc1Cl)C(=O)OCC(F)(F)F (stereo not drawn) [Compound 439],5 (Level 5: growth control rate is above 85%)
3,CC(=NC(=O)C(C)ON=Cc1cc(-n2c(=O)cc(C(F)(F)F)n(C)c2=O)c(F)cc1Cl)c1ccccc1 (stereo not drawn) [Compound 453],5 (Level 5: growth control rate is above 85%)

# Same assay, conditions: Dose 60 g/ha; fresh weight control rate level
row,SMILES,"Weeding effect in post-emergence stage, Setaria viridis (level)"
1,CC(O/N=C/c1cc(-n2c(=O)cc(C(F)(F)F)n(C)c2=O)c(F)cc1Cl)C(=O)N1CCOCC1 (stereo not drawn) [Compound 454],5 (Level 5: growth control rate is above 85%)

# Test system: Abutilon theophrasti
# Assay: Weeding effect in post-emergence stage
# Type: in vivo
# Settings: Dose 15 g/ha; fresh weight control rate level
# Method in brief: as §1
row,SMILES,"Weeding effect in post-emergence stage, Abutilon theophrasti (level)"
1,CC(O/N=C/c1cc(-n2c(=O)cc(C(F)(F)F)n(C)c2=O)c(F)cc1Cl)C(=O)OCC1(C#N)CC1 (stereo not drawn) [Compound 447],5 (Level 5: growth control rate is above 85%)
2,CC(O/N=C/c1cc(-n2c(=O)cc(C(F)(F)F)n(C)c2=O)c(F)cc1Cl)C(=O)OCCN(C)C (stereo not drawn) [Compound 448],5 (Level 5: growth control rate is above 85%)
3,CC(=NOC(=O)C(C)ON=Cc1cc(-n2c(=O)cc(C(F)(F)F)n(C)c2=O)c(F)cc1Cl)C(C)(C)C (stereo not drawn) [Compound 449],5 (Level 5: growth control rate is above 85%)
4,CC(=NOC(=O)C(C)ON=Cc1cc(-n2c(=O)cc(C(F)(F)F)n(C)c2=O)c(F)cc1Cl)C1CC1 (stereo not drawn) [Compound 450],5 (Level 5: growth control rate is above 85%)

# Same assay, conditions: Dose 30 g/ha; fresh weight control rate level
row,SMILES,"Weeding effect in post-emergence stage, Abutilon theophrasti (level)"
1,CC(O/N=C/c1cc(-n2c(=O)n(C)c(=S)n(C)c2=O)c(F)cc1Cl)C(=O)O (stereo not drawn) [Compound 438],5 (Level 5: growth control rate is above 85%)
2,CC(O/N=C/c1cc(-n2c(=O)n(C)c(=S)n(C)c2=O)c(F)cc1Cl)C(=O)OCC(F)(F)F (stereo not drawn) [Compound 439],5 (Level 5: growth control rate is above 85%)
3,CC(=NC(=O)C(C)ON=Cc1cc(-n2c(=O)cc(C(F)(F)F)n(C)c2=O)c(F)cc1Cl)c1ccccc1 (stereo not drawn) [Compound 453],5 (Level 5: growth control rate is above 85%)

# Same assay, conditions: Dose 60 g/ha; fresh weight control rate level
row,SMILES,"Weeding effect in post-emergence stage, Abutilon theophrasti (level)"
1,CC(O/N=C/c1cc(-n2c(=O)cc(C(F)(F)F)n(C)c2=O)c(F)cc1Cl)C(=O)N1CCOCC1 (stereo not drawn) [Compound 454],5 (Level 5: growth control rate is above 85%)

# Test system: Eleusine indica
# Assay: Weeding effect in post-emergence stage
# Type: in vivo
# Settings: Dose 15 g/ha; fresh weight control rate level
# Method in brief: as §1
row,SMILES,"Weeding effect in post-emergence stage, Eleusine indica (level)"
1,CC(O/N=C/c1cc(-n2c(=O)cc(C(F)(F)F)n(C)c2=O)c(F)cc1Cl)C(=O)OCC1(C#N)CC1 (stereo not drawn) [Compound 447],5 (Level 5: growth control rate is above 85%)
2,CC(O/N=C/c1cc(-n2c(=O)cc(C(F)(F)F)n(C)c2=O)c(F)cc1Cl)C(=O)OCCN(C)C (stereo not drawn) [Compound 448],5 (Level 5: growth control rate is above 85%)
3,CC(=NOC(=O)C(C)ON=Cc1cc(-n2c(=O)cc(C(F)(F)F)n(C)c2=O)c(F)cc1Cl)C(C)(C)C (stereo not drawn) [Compound 449],5 (Level 5: growth control rate is above 85%)
4,CC(=NOC(=O)C(C)ON=Cc1cc(-n2c(=O)cc(C(F)(F)F)n(C)c2=O)c(F)cc1Cl)C1CC1 (stereo not drawn) [Compound 450],5 (Level 5: growth control rate is above 85%)

# Same assay, conditions: Dose 30 g/ha; fresh weight control rate level
row,SMILES,"Weeding effect in post-emergence stage, Eleusine indica (level)"
1,CC(O/N=C/c1cc(-n2c(=O)n(C)c(=S)n(C)c2=O)c(F)cc1Cl)C(=O)O (stereo not drawn) [Compound 438],5 (Level 5: growth control rate is above 85%)
2,CC(O/N=C/c1cc(-n2c(=O)n(C)c(=S)n(C)c2=O)c(F)cc1Cl)C(=O)OCC(F)(F)F (stereo not drawn) [Compound 439],5 (Level 5: growth control rate is above 85%)
3,CC(=NC(=O)C(C)ON=Cc1cc(-n2c(=O)cc(C(F)(F)F)n(C)c2=O)c(F)cc1Cl)c1ccccc1 (stereo not drawn) [Compound 453],5 (Level 5: growth control rate is above 85%)

# Same assay, conditions: Dose 60 g/ha; fresh weight control rate level
row,SMILES,"Weeding effect in post-emergence stage, Eleusine indica (level)"
1,CC(O/N=C/c1cc(-n2c(=O)cc(C(F)(F)F)n(C)c2=O)c(F)cc1Cl)C(=O)N1CCOCC1 (stereo not drawn) [Compound 454],5 (Level 5: growth control rate is above 85%)

# Test system: Alopecurus japonicus
# Assay: Weeding effect in post-emergence stage
# Type: in vivo
# Settings: Dose 15 g/ha; fresh weight control rate level
# Method in brief: as §1
row,SMILES,"Weeding effect in post-emergence stage, Alopecurus japonicus (level)"
1,CC(O/N=C/c1cc(-n2c(=O)cc(C(F)(F)F)n(C)c2=O)c(F)cc1Cl)C(=O)OCC1(C#N)CC1 (stereo not drawn) [Compound 447],5 (Level 5: growth control rate is above 85%)
2,CC(O/N=C/c1cc(-n2c(=O)cc(C(F)(F)F)n(C)c2=O)c(F)cc1Cl)C(=O)OCCN(C)C (stereo not drawn) [Compound 448],5 (Level 5: growth control rate is above 85%)
3,CC(=NOC(=O)C(C)ON=Cc1cc(-n2c(=O)cc(C(F)(F)F)n(C)c2=O)c(F)cc1Cl)C(C)(C)C (stereo not drawn) [Compound 449],5 (Level 5: growth control rate is above 85%)
4,CC(=NOC(=O)C(C)ON=Cc1cc(-n2c(=O)cc(C(F)(F)F)n(C)c2=O)c(F)cc1Cl)C1CC1 (stereo not drawn) [Compound 450],5 (Level 5: growth control rate is above 85%)

# Same assay, conditions: Dose 30 g/ha; fresh weight control rate level
row,SMILES,"Weeding effect in post-emergence stage, Alopecurus japonicus (level)"
1,CC(O/N=C/c1cc(-n2c(=O)n(C)c(=S)n(C)c2=O)c(F)cc1Cl)C(=O)O (stereo not drawn) [Compound 438],5 (Level 5: growth control rate is above 85%)
2,CC(O/N=C/c1cc(-n2c(=O)n(C)c(=S)n(C)c2=O)c(F)cc1Cl)C(=O)OCC(F)(F)F (stereo not drawn) [Compound 439],5 (Level 5: growth control rate is above 85%)
3,CC(=NC(=O)C(C)ON=Cc1cc(-n2c(=O)cc(C(F)(F)F)n(C)c2=O)c(F)cc1Cl)c1ccccc1 (stereo not drawn) [Compound 453],5 (Level 5: growth control rate is above 85%)

# Same assay, conditions: Dose 60 g/ha; fresh weight control rate level
row,SMILES,"Weeding effect in post-emergence stage, Alopecurus japonicus (level)"
1,CC(O/N=C/c1cc(-n2c(=O)cc(C(F)(F)F)n(C)c2=O)c(F)cc1Cl)C(=O)N1CCOCC1 (stereo not drawn) [Compound 454],5 (Level 5: growth control rate is above 85%)
